{
  "source": "patent US20220281848A1",
  "about": "“PYRAZOLE-SUBSTITUTED PYRROLIDINONES AS HERBICIDES” (FMC Corporation, priority 2019, published 2022)",
  "system": "plants",
  "test": "Test D pre-emergence, other plants of Tables D1 and D3",
  "type": "in vivo",
  "conditions": "pre-emergence, 100=total damage, 0=no damage",
  "method_in_brief": "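Damage was rated visually from 0 (none) to 100 (total), at 20 DAA for pre-emergence and 15 d for post-emergence. Plants grew from safener-treated seed in a glasshouse at 24/18° C. or 20/16° C. day/night, 65% humidity, watered twice daily.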",
  "data": [
    {"smiles": "COc1c(F)cccc1NC(=O)C1C(=O)N(C)CC1c1cc(C(F)(F)F)n(C)n1", "note": "(racemic) [Compound 18]", "values": [
      {"measurement": "damage to plant, ALOMY", "setting": "rate 15, 20 DAA", "result": 0},
      {"measurement": "damage to plant, AVEFA", "setting": "rate 15, 20 DAA", "result": 0},
      {"measurement": "damage to plant, BEAVA", "setting": "rate 15, 20 DAA", "result": 0},
      {"measurement": "damage to plant, BROTE", "setting": "rate 15, 20 DAA", "result": 0},
      {"measurement": "damage to plant, BRSNN", "setting": "rate 15, 20 DAA", "result": 0},
      {"measurement": "damage to plant, CHEAL", "setting": "rate 15, 20 DAA", "result": 0},
      {"measurement": "damage to plant, GALAP", "setting": "rate 15, 20 DAA", "result": 0},
      {"measurement": "damage to plant, HORVW", "setting": "rate 15, 20 DAA", "result": 0},
      {"measurement": "damage to plant, KCHSC", "setting": "rate 15, 20 DAA", "result": 0},
      {"measurement": "damage to plant, LOLPE", "setting": "rate 15, 20 DAA", "result": 0},
      {"measurement": "damage to plant, POAAN", "setting": "rate 15, 20 DAA", "result": 0},
      {"measurement": "damage to plant, POLCO", "setting": "rate 15, 20 DAA", "result": 0},
      {"measurement": "damage to plant, SINAR", "setting": "rate 15, 20 DAA", "result": 0},
      {"measurement": "damage to plant, STEME", "setting": "rate 15, 20 DAA", "result": 0},
      {"measurement": "damage to plant, VERPE", "setting": "rate 15, 20 DAA", "result": 0},
      {"measurement": "damage to plant, ALOMY", "setting": "rate 30, 20 DAA", "result": 0},
      {"measurement": "damage to plant, AVEFA", "setting": "rate 30, 20 DAA", "result": 0},
      {"measurement": "damage to plant, BEAVA", "setting": "rate 30, 20 DAA", "result": 0},
      {"measurement": "damage to plant, BROTE", "setting": "rate 30, 20 DAA", "result": 0},
      {"measurement": "damage to plant, BRSNN", "setting": "rate 30, 20 DAA", "result": 0},
      {"measurement": "damage to plant, CHEAL", "setting": "rate 30, 20 DAA", "result": 0},
      {"measurement": "damage to plant, GALAP", "setting": "rate 30, 20 DAA", "result": 0},
      {"measurement": "damage to plant, HORVW", "setting": "rate 30, 20 DAA", "result": 0},
      {"measurement": "damage to plant, KCHSC", "setting": "rate 30, 20 DAA", "result": 0},
      {"measurement": "damage to plant, LOLPE", "setting": "rate 30, 20 DAA", "result": 0},
      {"measurement": "damage to plant, POAAN", "setting": "rate 30, 20 DAA", "result": 0},
      {"measurement": "damage to plant, POLCO", "setting": "rate 30, 20 DAA", "result": 0},
      {"measurement": "damage to plant, SINAR", "setting": "rate 30, 20 DAA", "result": 0},
      {"measurement": "damage to plant, STEME", "setting": "rate 30, 20 DAA", "result": 0},
      {"measurement": "damage to plant, VERPE", "setting": "rate 30, 20 DAA", "result": 0},
      {"measurement": "damage to plant, ALOMY", "setting": "rate 60, 20 DAA", "result": 0},
      {"measurement": "damage to plant, AVEFA", "setting": "rate 60, 20 DAA", "result": 0},
      {"measurement": "damage to plant, BEAVA", "setting": "rate 60, 20 DAA", "result": 0},
      {"measurement": "damage to plant, BROTE", "setting": "rate 60, 20 DAA", "result": 0},
      {"measurement": "damage to plant, BRSNN", "setting": "rate 60, 20 DAA", "result": 0},
      {"measurement": "damage to plant, CHEAL", "setting": "rate 60, 20 DAA", "result": 0},
      {"measurement": "damage to plant, GALAP", "setting": "rate 60, 20 DAA", "result": 0},
      {"measurement": "damage to plant, HORVW", "setting": "rate 60, 20 DAA", "result": 0},
      {"measurement": "damage to plant, KCHSC", "setting": "rate 60, 20 DAA", "result": 0},
      {"measurement": "damage to plant, LOLPE", "setting": "rate 60, 20 DAA", "result": 10},
      {"measurement": "damage to plant, POAAN", "setting": "rate 60, 20 DAA", "result": 40},
      {"measurement": "damage to plant, POLCO", "setting": "rate 60, 20 DAA", "result": 0},
      {"measurement": "damage to plant, SINAR", "setting": "rate 60, 20 DAA", "result": 0},
      {"measurement": "damage to plant, STEME", "setting": "rate 60, 20 DAA", "result": 0},
      {"measurement": "damage to plant, VERPE", "setting": "rate 60, 20 DAA", "result": 10},
      {"measurement": "damage to plant, ALOMY", "setting": "rate 130, 20 DAA", "result": 0},
      {"measurement": "damage to plant, AVEFA", "setting": "rate 130, 20 DAA", "result": 0},
      {"measurement": "damage to plant, BEAVA", "setting": "rate 130, 20 DAA", "result": 0},
      {"measurement": "damage to plant, BROTE", "setting": "rate 130, 20 DAA", "result": 10},
      {"measurement": "damage to plant, BRSNN", "setting": "rate 130, 20 DAA", "result": 0},
      {"measurement": "damage to plant, CHEAL", "setting": "rate 130, 20 DAA", "result": 20},
      {"measurement": "damage to plant, GALAP", "setting": "rate 130, 20 DAA", "result": 10},
      {"measurement": "damage to plant, HORVW", "setting": "rate 130, 20 DAA", "result": 0},
      {"measurement": "damage to plant, KCHSC", "setting": "rate 130, 20 DAA", "result": 0},
      {"measurement": "damage to plant, LOLPE", "setting": "rate 130, 20 DAA", "result": 20},
      {"measurement": "damage to plant, POAAN", "setting": "rate 130, 20 DAA", "result": 60},
      {"measurement": "damage to plant, POLCO", "setting": "rate 130, 20 DAA", "result": 0},
      {"measurement": "damage to plant, SINAR", "setting": "rate 130, 20 DAA", "result": 0},
      {"measurement": "damage to plant, STEME", "setting": "rate 130, 20 DAA", "result": 10},
      {"measurement": "damage to plant, VERPE", "setting": "rate 130, 20 DAA", "result": 20},
      {"measurement": "damage to plant, ALOMY", "setting": "rate 250, 20 DAA", "result": 30},
      {"measurement": "damage to plant, AVEFA", "setting": "rate 250, 20 DAA", "result": 30},
      {"measurement": "damage to plant, BEAVA", "setting": "rate 250, 20 DAA", "result": 0},
      {"measurement": "damage to plant, BROTE", "setting": "rate 250, 20 DAA", "result": 30},
      {"measurement": "damage to plant, BRSNN", "setting": "rate 250, 20 DAA", "result": 10},
      {"measurement": "damage to plant, CHEAL", "setting": "rate 250, 20 DAA", "result": 20},
      {"measurement": "damage to plant, GALAP", "setting": "rate 250, 20 DAA", "result": 30},
      {"measurement": "damage to plant, HORVW", "setting": "rate 250, 20 DAA", "result": 0},
      {"measurement": "damage to plant, KCHSC", "setting": "rate 250, 20 DAA", "result": 0},
      {"measurement": "damage to plant, LOLPE", "setting": "rate 250, 20 DAA", "result": 50},
      {"measurement": "damage to plant, POAAN", "setting": "rate 250, 20 DAA", "result": 70},
      {"measurement": "damage to plant, POLCO", "setting": "rate 250, 20 DAA", "result": 0},
      {"measurement": "damage to plant, SINAR", "setting": "rate 250, 20 DAA", "result": 0},
      {"measurement": "damage to plant, STEME", "setting": "rate 250, 20 DAA", "result": 20},
      {"measurement": "damage to plant, VERPE", "setting": "rate 250, 20 DAA", "result": 60},
      {"measurement": "damage to plant, ALOMY", "setting": "rate 500, 20 DAA", "result": 60},
      {"measurement": "damage to plant, AVEFA", "setting": "rate 500, 20 DAA", "result": 40},
      {"measurement": "damage to plant, BEAVA", "setting": "rate 500, 20 DAA", "result": 0},
      {"measurement": "damage to plant, BROTE", "setting": "rate 500, 20 DAA", "result": 40},
      {"measurement": "damage to plant, BRSNN", "setting": "rate 500, 20 DAA", "result": 20},
      {"measurement": "damage to plant, CHEAL", "setting": "rate 500, 20 DAA", "result": 30},
      {"measurement": "damage to plant, GALAP", "setting": "rate 500, 20 DAA", "result": 20},
      {"measurement": "damage to plant, HORVW", "setting": "rate 500, 20 DAA", "result": 40},
      {"measurement": "damage to plant, KCHSC", "setting": "rate 500, 20 DAA", "result": 0},
      {"measurement": "damage to plant, LOLPE", "setting": "rate 500, 20 DAA", "result": 70},
      {"measurement": "damage to plant, POAAN", "setting": "rate 500, 20 DAA", "result": 90},
      {"measurement": "damage to plant, POLCO", "setting": "rate 500, 20 DAA", "result": 0},
      {"measurement": "damage to plant, SINAR", "setting": "rate 500, 20 DAA", "result": 10},
      {"measurement": "damage to plant, STEME", "setting": "rate 500, 20 DAA", "result": 10},
      {"measurement": "damage to plant, VERPE", "setting": "rate 500, 20 DAA", "result": 50}
    ]}
  ]
}
